Target: T1, α2C receptor (Homo sapiens, UniProt P18825)
T1 sequence (P18825 1-462): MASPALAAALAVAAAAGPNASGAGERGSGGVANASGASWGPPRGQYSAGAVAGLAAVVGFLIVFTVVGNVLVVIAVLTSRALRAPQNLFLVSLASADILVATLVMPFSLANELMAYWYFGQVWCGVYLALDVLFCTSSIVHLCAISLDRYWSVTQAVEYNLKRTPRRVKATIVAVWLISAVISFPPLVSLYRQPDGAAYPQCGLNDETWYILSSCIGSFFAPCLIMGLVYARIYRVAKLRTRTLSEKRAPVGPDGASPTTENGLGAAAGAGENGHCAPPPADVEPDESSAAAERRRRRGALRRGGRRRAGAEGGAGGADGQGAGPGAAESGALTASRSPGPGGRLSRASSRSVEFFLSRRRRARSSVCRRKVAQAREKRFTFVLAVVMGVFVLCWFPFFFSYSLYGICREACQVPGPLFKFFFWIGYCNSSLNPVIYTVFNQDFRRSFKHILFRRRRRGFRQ
Assay: GTPγS assay, efficacy agonist activity (Emax) for α2C
Format: biochemical
Conditions: active agonist = efficacy at α2C ≧30% Emax; functionally selective = additionally efficacy at α2A ≦30% Emax (GTPγS assay)
Text: For the purposes of this present invention, a compound is defined to be an active agonist of the α2C receptor subtype if the compound's efficacy at the α2C receptor is ≧30% Emax (GTPγS assay). A compound is a functionally selective agonist of the α2C receptor subtype over the α2A receptor subtype if the compound's efficacy at the α2C receptor is ≧30% Emax (GTPγS assay) and its efficacy at the α2A receptor is ≦30% Emax (GTPγS assay).
Efficacy agonist activity values (Emax, GTPγS assay) for α2C were determined by following the general procedure detailed by Umland et al (“Receptor reserve analysis of the human α2c-adrenoceptor using [^35S]GTPγS and cAMP functional assays” European Journal of Pharmacology 2001, 411, 211-221). For the purposes of the present invention, a compound is defined to be an active agonist of the α2C receptor subtype if the compound's efficacy at the α2C receptor is ≧30% Emax (GTPγS assay). A compound is a functionally selective agonist of the α2C receptor subtype over the α2A receptor subtype if the compound's efficacy at the α2C receptor is […] Emax (GTPγS assay) and its efficacy at the α2A receptor is ≦30% Emax (GTPγS assay).

Compound	Efficacy agonist activity (Emax, GTPγS assay) for α2C: evaluated as active or functionally selective agonist
N#Cc1ccc2c(n1)N(Cc1c[nH]cn1)CCO2 [Compound 55]	active or functionally selective agonists of the α2C receptor subtype
COC(=O)Nc1cc(O)c2c(c1)N(Cc1c[nH]cn1)CCO2 [Compound 57]	active or functionally selective agonists of the α2C receptor subtype
CNC(=O)N(C)c1ccc2c(c1)N(CCc1c[nH]cn1)CCO2 [Compound 58]	active or functionally selective agonists of the α2C receptor subtype
CCN(C(=O)OCc1ccnc(N)c1)c1ccc2c(c1)N(Cc1c[nH]cn1)CCO2 [Compound 63]	active or functionally selective agonists of the α2C receptor subtype
CCN(C(=O)n1ccnc1)c1ccc2c(c1)N(Cc1c[nH]cn1)CCO2 [Compound 64A]	active or functionally selective agonists of the α2C receptor subtype
CCN(C(=O)OCc1ccccn1)c1ccc2c(c1)N(Cc1c[nH]cn1)CCO2 [Compound 64]	active or functionally selective agonists of the α2C receptor subtype
CCN(C(=O)OCc1ccc(S(C)(=O)=O)cc1)c1ccc2c(c1)N(Cc1c[nH]cn1)CCO2 [Compound 65]	active or functionally selective agonists of the α2C receptor subtype
COC(=O)Cc1ccc2c(c1)N(Cc1c[nH]cn1)CCO2 [Compound 114]	active or functionally selective agonists of the α2C receptor subtype
c1cnc2c(c1)OCCN2Cc1c[nH]cn1 [Compound 117]	active or functionally selective agonists of the α2C receptor subtype
Fc1cc(Br)cc2c1OCCN2Cc1c[nH]cn1 [Compound 124]	active or functionally selective agonists of the α2C receptor subtype
N#Cc1cc(F)c2c(c1)N(Cc1c[nH]cn1)CCO2 [Compound 125]	active or functionally selective agonists of the α2C receptor subtype
Cc1cc([N+](=O)[O-])cc2c1OCCN2Cc1c[nH]cn1 [Compound 129]	active or functionally selective agonists of the α2C receptor subtype
COC(=O)Nc1cc(C)c2c(c1)N(Cc1c[nH]cn1)CCO2 [Compound 130]	active or functionally selective agonists of the α2C receptor subtype
O=CNc1cc(F)c2c(c1)N(Cc1c[nH]cn1)CCO2 [Compound 132]	active or functionally selective agonists of the α2C receptor subtype
CNC(=O)N(C)c1cc(F)c2c(c1)N(Cc1c[nH]cn1)CCO2 [Compound 134]	active or functionally selective agonists of the α2C receptor subtype
COC(=O)N(C)c1cc(F)c2c(c1)N(Cc1c[nH]cn1)CCO2 [Compound 135]	active or functionally selective agonists of the α2C receptor subtype
COC(=O)Nc1ccc2c(n1)N(Cc1c[nH]cn1)CCO2 [Compound 137]	active or functionally selective agonists of the α2C receptor subtype
COC(=O)Nc1ccc2c(c1)N(CCc1c[nH]cn1)CCO2 [Compound 139]	active or functionally selective agonists of the α2C receptor subtype
CN(C)S(=O)(=O)Nc1ccc2c(c1)N(Cc1c[nH]cn1)CCS2 [Compound 142]	active or functionally selective agonists of the α2C receptor subtype
CNC(=O)N(C)c1ccc2c(c1)N(Cc1c[nH]cn1)CCS2 [Compound 144]	active or functionally selective agonists of the α2C receptor subtype
FC(F)(F)c1ccc2c(c1)N(Cc1c[nH]cn1)CCS2 [Compound 145]	active or functionally selective agonists of the α2C receptor subtype

Compound	Efficacy agonist activity (Emax, GTPγS assay) for α2C: evaluated as active or functionally selective agonist
COc1ccc(-c2ccc3c(c2)N(Cc2c[nH]cn2)CCO3)cn1 [Compound 148]	active or functionally selective agonists of the α2C receptor subtype
CCN(C(=O)OC)c1ccc2c(c1)N(Cc1c[nH]cn1)CCO2 [Compound 151]	active or functionally selective agonists of the α2C receptor subtype
N=C(N)c1cc(F)c2c(c1)N(Cc1c[nH]cn1)CCO2 [Compound 152]	active or functionally selective agonists of the α2C receptor subtype
CCN(C(C)=O)c1ccc2c(c1)N(Cc1c[nH]cn1)CCO2 [Compound 158]	active or functionally selective agonists of the α2C receptor subtype
CCOC(=O)N(CC)c1ccc2c(c1)N(Cc1c[nH]cn1)CCO2 [Compound 159]	active or functionally selective agonists of the α2C receptor subtype
CCN(C(=O)OCCOC)c1ccc2c(c1)N(Cc1c[nH]cn1)CCO2 [Compound 160]	active or functionally selective agonists of the α2C receptor subtype
CC#CCOC(=O)N(CC)c1ccc2c(c1)N(Cc1c[nH]cn1)CCO2 [Compound 162]	active or functionally selective agonists of the α2C receptor subtype
CCN(C(=O)COC)c1ccc2c(c1)N(Cc1c[nH]cn1)CCO2 [Compound 163]	active or functionally selective agonists of the α2C receptor subtype
CCN(C(=O)CCOC)c1ccc2c(c1)N(Cc1c[nH]cn1)CCO2 [Compound 164]	active or functionally selective agonists of the α2C receptor subtype
CCN(C(=O)COCCOC)c1ccc2c(c1)N(Cc1c[nH]cn1)CCO2 [Compound 165]	active or functionally selective agonists of the α2C receptor subtype
CCN(C(=O)CCCc1ccccc1)c1ccc2c(c1)N(Cc1c[nH]cn1)CCO2 [Compound 167]	active or functionally selective agonists of the α2C receptor subtype
CNC(=O)N(C)c1ccc2c(c1)N(C(C#N)c1c[nH]cn1)CCO2 (centres unmarked) [Compound 168]	active or functionally selective agonists of the α2C receptor subtype
CCN(C(=O)NC)c1ccc2c(c1)N(C(C#N)c1c[nH]cn1)CCO2 (centres unmarked) [Compound 169]	active or functionally selective agonists of the α2C receptor subtype
COC(=O)Nc1ccc2c(c1)N(C(C#N)c1c[nH]cn1)CCO2 (centres unmarked) [Compound 171]	active or functionally selective agonists of the α2C receptor subtype
CCN(C(=O)OC)c1cc(F)c2c(c1)N(Cc1c[nH]cn1)CCO2 [Compound 178]	active or functionally selective agonists of the α2C receptor subtype
COC(=O)Nc1cc(F)c2c(c1)N(C(C#N)c1c[nH]cn1)CCO2 (centres unmarked) [Compound 181]	active or functionally selective agonists of the α2C receptor subtype
CNC(=O)N(C)c1ccc2c(c1)N(Cc1c[nH]cn1)CCCO2 [Compound 223]	active or functionally selective agonists of the α2C receptor subtype
COCCOC(=O)N(C)c1ccc2c(n1)N(Cc1c[nH]cn1)CCO2 [Compound 231]	active or functionally selective agonists of the α2C receptor subtype
CNC(=O)N(C)c1cc(Cl)c2c(c1)N(Cc1c[nH]cn1)CCO2 [Compound 232]	active or functionally selective agonists of the α2C receptor subtype
CONC(=O)N(C)c1cc(Cl)c2c(c1)N(Cc1c[nH]cn1)CCO2 [Compound 235]	active or functionally selective agonists of the α2C receptor subtype

Source: patent publication US7700592B2, “α2C adrenoreceptor agonists” (Schering Corporation, priority 2005, dated 2010)
